Where two headings read alike, the source gives them in different places.
How the values were obtained:
Assay type in all cases: biochemical
Aurora A = target: T1, Aurora A (Homo sapiens, UniProt O14965); test: Kinase profiling Aurora A; conditions: for remaining activity at 100 µM: read-out: residual kinase activity, Aurora A
T1 sequence (O14965 1-403): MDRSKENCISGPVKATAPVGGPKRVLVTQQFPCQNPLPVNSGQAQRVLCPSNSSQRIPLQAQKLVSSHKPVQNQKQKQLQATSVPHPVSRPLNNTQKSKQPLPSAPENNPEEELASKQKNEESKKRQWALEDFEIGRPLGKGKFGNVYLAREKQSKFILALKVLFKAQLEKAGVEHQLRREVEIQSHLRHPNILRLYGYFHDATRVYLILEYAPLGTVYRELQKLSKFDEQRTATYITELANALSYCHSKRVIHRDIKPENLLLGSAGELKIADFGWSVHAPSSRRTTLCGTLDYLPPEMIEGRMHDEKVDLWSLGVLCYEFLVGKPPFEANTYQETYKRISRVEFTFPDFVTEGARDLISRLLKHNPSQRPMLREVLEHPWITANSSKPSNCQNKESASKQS
Description: (§1) Any value less that 25 is considered to be highly significant inhibition.

OSR1 = OSR1 (Homo sapiens, UniProt O95747); test: Kinase profiling OSR1; conditions: for remaining activity at 100 µM: read-out: residual kinase activity, OSR1
Description: as §1

NUAK1 = target: T2, NUAK1 (Homo sapiens, UniProt O60285); test: Kinase profiling NUAK1; conditions: for remaining activity at 100 µM: read-out: residual kinase activity, NUAK1
T2 sequence (O60285 1-661): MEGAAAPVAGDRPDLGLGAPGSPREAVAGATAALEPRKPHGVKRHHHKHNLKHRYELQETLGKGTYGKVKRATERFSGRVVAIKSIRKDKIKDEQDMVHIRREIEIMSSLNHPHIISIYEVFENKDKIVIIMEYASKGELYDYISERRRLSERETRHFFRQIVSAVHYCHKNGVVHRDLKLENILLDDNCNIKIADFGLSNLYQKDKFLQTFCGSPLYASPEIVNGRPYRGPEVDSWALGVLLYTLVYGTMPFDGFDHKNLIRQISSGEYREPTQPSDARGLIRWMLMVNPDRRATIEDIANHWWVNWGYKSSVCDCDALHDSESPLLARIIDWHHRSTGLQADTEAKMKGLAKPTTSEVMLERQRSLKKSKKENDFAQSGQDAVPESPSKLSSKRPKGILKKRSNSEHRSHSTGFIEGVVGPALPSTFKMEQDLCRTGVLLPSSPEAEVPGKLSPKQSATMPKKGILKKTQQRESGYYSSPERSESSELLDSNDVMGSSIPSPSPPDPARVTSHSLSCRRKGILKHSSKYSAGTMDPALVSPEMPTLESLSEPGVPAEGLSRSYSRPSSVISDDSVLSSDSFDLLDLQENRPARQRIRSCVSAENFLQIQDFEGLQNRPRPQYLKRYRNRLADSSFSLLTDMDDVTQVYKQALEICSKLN
Description: as §1

CHK1 = target: T3, CHK1 (Homo sapiens, UniProt O14757); test: Kinase profiling CHK1; conditions: for remaining activity at 100 µM: read-out: residual kinase activity, CHK1
T3 sequence (O14757 1-476): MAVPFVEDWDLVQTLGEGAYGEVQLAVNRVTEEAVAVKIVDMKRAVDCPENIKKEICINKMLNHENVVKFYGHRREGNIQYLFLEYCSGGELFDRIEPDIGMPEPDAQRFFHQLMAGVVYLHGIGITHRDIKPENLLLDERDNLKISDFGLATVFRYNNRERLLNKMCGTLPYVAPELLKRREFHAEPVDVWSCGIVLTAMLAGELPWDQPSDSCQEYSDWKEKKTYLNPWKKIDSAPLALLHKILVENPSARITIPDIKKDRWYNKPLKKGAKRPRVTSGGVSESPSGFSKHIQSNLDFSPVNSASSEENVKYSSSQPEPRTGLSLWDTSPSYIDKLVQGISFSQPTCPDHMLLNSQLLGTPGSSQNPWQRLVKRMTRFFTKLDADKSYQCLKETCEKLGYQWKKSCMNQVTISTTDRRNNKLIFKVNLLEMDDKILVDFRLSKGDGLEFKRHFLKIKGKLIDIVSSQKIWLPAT
Description: as §1

PAK6 = PAK6 (Homo sapiens, UniProt Q9NQU5); test: Kinase profiling PAK6; conditions: for remaining activity at 100 µM: read-out: residual kinase activity, PAK6
Description: as §1

TSSK1 = target: T4, TSSK1 (Homo sapiens, UniProt Q9BXA7); test: Kinase profiling TSSK1; conditions: for remaining activity at 100 µM: read-out: residual kinase activity, TSSK1
T4 sequence (Q9BXA7 1-367): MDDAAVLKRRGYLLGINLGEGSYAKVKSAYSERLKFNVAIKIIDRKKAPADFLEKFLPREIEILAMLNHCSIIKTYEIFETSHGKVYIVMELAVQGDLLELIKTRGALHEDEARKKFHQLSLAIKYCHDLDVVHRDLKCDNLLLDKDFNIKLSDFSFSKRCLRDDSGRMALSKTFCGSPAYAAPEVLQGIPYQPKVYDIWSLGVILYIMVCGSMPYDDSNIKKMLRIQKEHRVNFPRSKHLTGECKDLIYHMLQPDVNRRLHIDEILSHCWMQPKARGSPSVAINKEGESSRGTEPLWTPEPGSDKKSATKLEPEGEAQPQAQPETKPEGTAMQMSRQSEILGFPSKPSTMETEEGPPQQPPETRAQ
Description: as §1

[1] = 100 micromolar inhibitor concentration, 100 is no change
[2] = 100 micromolar inhibitor, 100 = no change

PAK6, sequence (Q9NQU5 whole entry, species assumed): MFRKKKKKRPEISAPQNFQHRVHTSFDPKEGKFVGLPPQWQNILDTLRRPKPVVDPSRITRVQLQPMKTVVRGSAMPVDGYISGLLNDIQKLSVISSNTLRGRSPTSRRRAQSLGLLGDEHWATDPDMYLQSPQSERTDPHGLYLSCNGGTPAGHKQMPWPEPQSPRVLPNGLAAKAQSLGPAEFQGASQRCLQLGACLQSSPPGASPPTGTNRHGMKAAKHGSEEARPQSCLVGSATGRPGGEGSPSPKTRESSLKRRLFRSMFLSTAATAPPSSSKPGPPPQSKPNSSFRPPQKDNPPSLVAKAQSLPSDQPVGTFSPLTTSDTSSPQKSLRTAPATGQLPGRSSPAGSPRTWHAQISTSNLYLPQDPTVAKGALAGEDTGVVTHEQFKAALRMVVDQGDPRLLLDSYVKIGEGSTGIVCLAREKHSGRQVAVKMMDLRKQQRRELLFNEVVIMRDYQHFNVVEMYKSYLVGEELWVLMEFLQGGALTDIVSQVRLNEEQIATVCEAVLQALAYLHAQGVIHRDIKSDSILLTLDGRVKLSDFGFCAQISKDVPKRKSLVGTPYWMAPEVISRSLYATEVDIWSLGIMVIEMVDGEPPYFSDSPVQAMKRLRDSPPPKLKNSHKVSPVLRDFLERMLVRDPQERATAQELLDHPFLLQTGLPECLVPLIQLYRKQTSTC
OSR1, sequence (O95747 whole entry): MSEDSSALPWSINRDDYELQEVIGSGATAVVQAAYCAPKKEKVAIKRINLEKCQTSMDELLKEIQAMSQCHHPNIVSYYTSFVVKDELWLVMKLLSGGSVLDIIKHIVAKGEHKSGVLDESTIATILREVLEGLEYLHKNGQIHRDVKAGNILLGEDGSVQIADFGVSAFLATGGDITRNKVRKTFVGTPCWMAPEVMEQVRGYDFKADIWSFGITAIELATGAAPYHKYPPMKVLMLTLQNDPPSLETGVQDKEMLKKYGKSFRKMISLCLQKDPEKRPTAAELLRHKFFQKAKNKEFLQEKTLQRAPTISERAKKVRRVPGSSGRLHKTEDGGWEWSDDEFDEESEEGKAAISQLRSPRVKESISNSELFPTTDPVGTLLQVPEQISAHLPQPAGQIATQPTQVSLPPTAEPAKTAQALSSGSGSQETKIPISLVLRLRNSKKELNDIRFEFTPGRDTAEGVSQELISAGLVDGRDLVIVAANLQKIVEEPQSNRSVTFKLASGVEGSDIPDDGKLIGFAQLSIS

Compound	remaining activity at 100 µM (Aurora A; [1]) [%]	remaining activity at 100 µM (OSR1; [1]) [%]	remaining activity at 100 µM (NUAK1; [1]) [%]	remaining activity at 100 µM (CHK1; [1]) [%]	remaining activity at 100 µM (PAK6; [1]) [%]	remaining activity at 100 µM (TSSK1; [1]) [%]	residual kinase activity, Aurora A (Aurora A; [1])	residual kinase activity, OSR1 (OSR1; [1])	residual kinase activity, NUAK1 (NUAK1; [1])	residual kinase activity, CHK1 (CHK1; [1])	residual kinase activity, PAK6 (PAK6; [1])	residual kinase activity, TSSK1 (TSSK1; [1])	other results
CC(=O)Nc1nc2cc(O)ccc2s1 [Compound 01-66, N-(5-hydroxybenzo[d]thiazol-2-yl)acetamide]	–	–	–	–	–	–	–	–	–	–	–	–	remaining activity at 100 µM (Aurora A): 87%; remaining activity at 100 µM (OSR1): 95%; remaining activity at 100 µM (NUAK1): 44%; remaining activity at 100 µM (CHK1): 75%; remaining activity at 100 µM (PAK6): 90%; remaining activity at 100 µM (TSSK1): 65%
CC(=O)Nc1nc2ccc(O)cc2s1 [Compound 01-71]	68	78	26	82	81	67	–	–	–	–	–	–	–
CC(=O)Nc1nc2ccc(C(F)(F)F)cc2s1 [Compound 01-90]	81	75	66	97	106	90	–	–	–	–	–	–	–
CC(=O)Nc1nc2ccc(C#N)cc2s1 [Compound 01-94]	61	79	46	96	92	55	–	–	–	–	–	–	–
CC(=O)Nc1cccc(NC(=O)c2nc3ccc(O)cc3s2)c1 [Compound 03-07, N-(3-acetamidophenyl)-6-hydroxybenzo[d]thiazole-2-carboxamide]	–	–	–	–	–	–	–	–	–	–	–	–	remaining activity at 100 µM (Aurora A; [2]): 110%; remaining activity at 100 µM (OSR1; [2]): 87%; remaining activity at 100 µM (NUAK1; [2]): 37%; remaining activity at 100 µM (CHK1; [2]): 113%; remaining activity at 100 µM (PAK6; [2]): 106%; remaining activity at 100 µM (TSSK1; [2]): 57%
O=C(Nc1nc2cc(O)ccc2s1)c1ccncc1 [Compound 03-11]	–	–	–	–	–	–	106	90	86	78	90	97	–
O=C(Nc1nc2ccc(O)cc2s1)c1ccccn1 [Compound 03-12]	–	–	–	–	–	–	95	59	52	90	101	66	–
O=C(Nc1nc2cc(O)ccc2s1)c1ccccn1 [Compound 03-13]	–	–	–	–	–	–	93	97	64	88	99	95	–
COc1ccc2sc(NC(C)=O)nc2c1 [Compound 03-21]	103	119	84	110	108	75	–	–	–	–	–	–	–
CC(=O)Nc1nc2ccccc2s1 [Compound 03-32]	–	–	–	–	–	–	109	112	74	105	92	83	–
O=C(Nc1nc2cc(O)ccc2s1)c1cccnc1 [Compound 03-33]	–	–	–	–	–	–	108	109	68	106	119	75	–
O=C(Nc1nc2ccc(O)cc2s1)c1ccccc1 [Compound 03-60]	–	–	–	–	–	–	82	82	14	72	104	27	–
CC(=O)Nc1nc2cc(C(F)(F)F)ccc2s1 [Compound 03-73]	96	113	74	110	11	71	–	–	–	–	–	–	–
CC(=O)Nc1nc2cc(C)ccc2s1 [Compound 03-76]	–	–	–	–	–	–	109	116	58	102	108	79	–
CC(=O)Nc1nc2cc(F)ccc2s1 [Compound 03-77]	100	109	66	103	106	84	–	–	–	–	–	–	–
O=C(Nc1nc2ccc(O)cc2s1)c1ccncc1 [Compound 08-42]	–	–	–	–	–	–	103	72	57	70	93	85	–
O=C(Nc1nc2ccc(O)cc2s1)c1cccnc1 [Compound 08-44]	–	–	–	–	–	–	99	51	39	78	94	109	–

Reference: US10231954B2, “Neurodegenerative therapies” (LYTIX BIOPHARMA AS, priority 2014, dated 2019)
